Experimental data: PMC6132360 (Clinical and Translational Science, 2018)
Like-named read-outs stand apart in the source and are kept apart here.

How the values were obtained:
[1] = for AUC0‐24h at T800, fold higher than with T200: 800 mg vs 200 mg oral testosterone
5‐AR types 1 and 2 = assay: Effect of dutasteride on in vitro testosterone metabolism in human hepatocytes; assay type: cell-based; conditions: 200 nM dutasteride with 50 μM testosterone, 60 minutes; for change in metabolite formation/levels with dutasteride co‐treatment: human hepatocytes
UGT2B17 = target: T1, UGT2B17 (Homo sapiens, UniProt O75795); assay type: in vitro ADME; conditions: scaled by absolute UGT2B abundance in the intestine
T1 sequence (O75795 24-530): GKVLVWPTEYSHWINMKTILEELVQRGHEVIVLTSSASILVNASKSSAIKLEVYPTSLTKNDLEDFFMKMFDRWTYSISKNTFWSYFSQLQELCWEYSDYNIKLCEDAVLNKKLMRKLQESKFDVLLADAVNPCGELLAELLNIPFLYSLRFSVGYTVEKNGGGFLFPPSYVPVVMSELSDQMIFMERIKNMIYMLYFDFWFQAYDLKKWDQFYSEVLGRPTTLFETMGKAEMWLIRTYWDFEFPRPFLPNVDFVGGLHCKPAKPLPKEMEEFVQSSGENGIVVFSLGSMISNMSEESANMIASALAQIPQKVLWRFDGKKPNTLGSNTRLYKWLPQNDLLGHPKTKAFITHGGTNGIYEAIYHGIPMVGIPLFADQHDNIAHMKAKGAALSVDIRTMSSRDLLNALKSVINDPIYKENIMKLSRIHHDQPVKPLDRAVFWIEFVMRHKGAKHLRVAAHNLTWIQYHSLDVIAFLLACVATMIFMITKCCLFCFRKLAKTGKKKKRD

UGT2B7 = UGT2B7 (Homo sapiens, UniProt P16662); conditions: scaled by absolute UGT2B abundance in the liver
human hepatocytes = assay: In vitro metabolite formation from testosterone in primary human hepatocyte; assay type: in vitro ADME
[2] = oral; cited from earlier work
testosterone production = conditions: normal men, single injection 300 μg/kg subcutaneous; cited from earlier work

Chain of UGT2B7 (P16662 24-529): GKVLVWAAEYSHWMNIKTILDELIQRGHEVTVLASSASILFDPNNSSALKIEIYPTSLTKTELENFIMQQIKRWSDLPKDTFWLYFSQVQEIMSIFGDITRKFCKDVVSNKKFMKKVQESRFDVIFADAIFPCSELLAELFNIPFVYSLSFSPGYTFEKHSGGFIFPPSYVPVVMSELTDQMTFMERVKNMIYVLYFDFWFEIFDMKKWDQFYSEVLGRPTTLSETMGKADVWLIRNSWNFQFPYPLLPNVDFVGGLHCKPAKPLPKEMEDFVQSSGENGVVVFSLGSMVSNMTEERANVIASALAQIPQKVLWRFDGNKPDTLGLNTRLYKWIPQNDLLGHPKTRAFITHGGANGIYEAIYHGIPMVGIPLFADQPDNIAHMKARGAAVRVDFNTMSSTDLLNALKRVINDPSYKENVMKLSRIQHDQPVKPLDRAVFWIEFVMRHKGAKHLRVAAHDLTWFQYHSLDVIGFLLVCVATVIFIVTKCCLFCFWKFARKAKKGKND

C[C@]12CC[C@H]3[C@@H](C[C@@H](O)C4=CC(=O)CC[C@@]43C)[C@@H]1CC[C@@H]2O [6β‐OH‐T, 6β‐hydroxytestosterone]
detection in serum ([1]; after oral testosterone): only detectable in a few samples | change in metabolite formation/levels with dutasteride co‐treatment (5‐AR types 1 and 2): significant decreases

C[C@]12CC[C@@H](O)C[C@@H]1CC[C@@H]1[C@@H]2CC[C@]2(C)C(=O)CC[C@@H]12 [A, androsterone]
predicted contribution of UGT2B17 to intestinal glucuronidation (UGT2B17): 70% | change in metabolite formation/levels with dutasteride co‐treatment (5‐AR types 1 and 2): significant decreases | predicted contribution of UGT2B7 to hepatic glucuronidation (UGT2B7): 100%

C[C@]12CCC(=O)C=C1CC[C@@H]1[C@@H]2CC[C@]2(C)C(=O)CC[C@@H]12 [AED, androstenedione]
in vitro formation from testosterone (human hepatocytes): 46% | AUC0‐24h at T800, fold higher than with T200 [1]: 4.2 fold | circulating levels higher in T200+D and T800+D as compared with testosterone alone [1]: 5.7 fold | Tmax ([1]; male, human, in vivo, 200 mg, T200): 2 h | Tmax ([1]; male, human, in vivo, T200+D): 2 h | change in metabolite formation/levels with dutasteride co‐treatment (5‐AR types 1 and 2): No significant changes

C[C@]12CCC(=O)C[C@@H]1CC[C@@H]1[C@@H]2CC[C@]2(C)[C@@H](O)CC[C@@H]12 [DHT, dihydrotestosterone]
AUC0‐24h at T800, fold higher than with T200 [1]: 3.3 fold | Tmax ([1]; male, human, in vivo, 800 mg, T800): 2 h | AUC(0-t) ([1]; male, human, in vivo, AUC0–24h, T800+D, average, n = 7): 0.0266 µM·h | Tmax ([1]; male, human, in vivo, T200+D): 4 h | change in metabolite formation/levels with dutasteride co‐treatment (5‐AR types 1 and 2): significant decreases

C[C@]12CC[C@@H](O)C[C@H]1CC[C@@H]1[C@@H]2CC[C@]2(C)C(=O)CC[C@@H]12 [Etio, etiocholanolone]
predicted contribution of UGT2B17 to intestinal glucuronidation (UGT2B17): 90% | circulating levels higher in T200+D and T800+D as compared with testosterone alone [1]: 2.3 fold

C[C@]12CC[C@H]3[C@@H](CCC4=CC(=O)CC[C@@]43C)[C@@H]1CC[C@@H]2O [Testosterone, reference compound]
bioavailability [2]: 2–8% | predicted contribution of UGT2B17 to intestinal glucuronidation (UGT2B17): 100%

C[C@]12C=CC(=O)N[C@@H]1CC[C@@H]1[C@@H]2CC[C@]2(C)[C@@H](C(=O)Nc3cc(C(F)(F)F)ccc3C(F)(F)F)CC[C@@H]12 [dutasteride, reference compound]
inhibition of 5‐AR types 1 and 2 mediated metabolism of testosterone (5‐AR types 1 and 2): complete inhibition

acyline
duration of suppression of testosterone production (testosterone production): ≥ 15 days
